Data as given in US8324273B2 (XenoPort, Inc., priority 2006, dated 2012).

Experiments:
[1] = Hygroscopicity of crystalline hydrogen fumarate (21) crystallized from various solvents; assay type: physicochemical
Procedure: (1R)-2-Acetyloxy-1-methylethyl (2S)-2-amino-3-[3,4-bis(ethoxycarbonyloxy)phenyl]propanoate hydrogen fumarate (21) was crystallized using the solvents listed in Table 1 on a 100 mg scale.

[2] = following oral administration of NB-355; cited from earlier work
[3] = Intracolonic bioavailability of levodopa prodrugs in monkeys; assay type: in vivo, male Cynomologous monkeys; conditions: male, monkey, whole blood, intravenous, 10 mg; read-out: mean AUCinf
Procedure: Male Cynomologous monkeys weighing about 3.0 kg were used in the studies. Monkeys are fasted overnight prior to the study until 4 hours after dosing. Water was provided ad libitum.
Carbidopa was prepared as a solution (0.72 mg/mL) in sodium acetate buffer pH 5.16.
Blood samples were collected at pre-dose and at 0.17, 0.25, 0.5, 0.75, 1, 2, 4, 6, 8, 12, and 24 hours post-dose. About 0.3 mL of blood was collected in pre-chilled K2EDTA tubes containing 100 μL of 10% sodium metabisulfite. The contents were gently vortexed at low speed to ensure that the sampled blood came into contact with sodium metabisulfite while maintaining ice on the samples at all times. About 0.1 mL of the anticoagulated blood was added to each of 2 pre-chilled cryovials that each contained about 0.3 mL of quenching media (89.3% v/v methanol and 10.7% v/v 4N perchloric acid) within 5 minutes of bleed. Within 30 minutes of blood collection, the samples were centrifuged at about 3,000 rpm, 4° C., for 10 min. The samples were then stored at −70° C.
Blood samples were analyzed as described in Example 30.

**Q.** What does the source list for `CCOC(=O)Oc1ccc(C[C@H](N)C(=O)O[C@H](C)COC(C)=O)cc1OC(=O)OCC.O=C(O)/C=C/C(=O)O` [Compound 21, (1R)-2-Acetyloxy-1-methylethyl (2S)-2-Amino-3-[3,4-bis(ethoxycarbonyloxy)phenyl]propanoate Hydrogen Fumarate]?
**A.** Hygroscopicity ([1]; crystallized from acetonitrile-methyl tert-butyl ether): None; Hygroscopicity ([1]; crystallized from ethyl acetate): None; Hygroscopicity ([1]; crystallized from ethyl acetate-diisopropyl ether): None; Hygroscopicity ([1]; crystallized from ethyl acetate-methyl tert-butyl ether): None; melting point: 78.1 to 80.7 °C

**Q.** With `CC(C)(C)C(=O)Oc1ccc(C[C@H](N)C(=O)O)cc1O` [NB-355] as the compound, how does the “duration of circulating levodopa” value [2] read?
**A.** The value was “prolonged”.

**Q.** What about the “plasma concentrations of levodopa” value [2] of the same compound?
**A.** The value was “low”.

**Q.** With `N[C@@H](Cc1ccc(O)c(O)c1)C(=O)O` [levodopa, L-3,4-dihydroxyphenylalanine] as the compound, how does the AUC(0-inf) [3] read?
**A.** The AUC(0-inf) was 3690 ng·h/mL.
